Measured values from patent US10851088B2, “Polymorphs and solid forms of a pyrimidinylamino-pyrazole compound, and methods of production” (Denali Therapeutics Inc., priority 2017, dated 2020).
In brackets after ≈: the same amount, converted by molar mass. Where two headings read alike, the source gives them in different places.

Assays:
Type in all cases: physicochemical
[1] = Approximate solubility in solvents, used to choose slurry solvent systems
[2] = Slurry competition experiments (thermodynamic stability of anhydrate forms); conditions: for thermodynamic stability, Form C versus Form D: slurry competition
Protocol: Slurry competition experiments were performed to investigate the inter-conversion relationship between three anhydrates (Form A, C, and D). […] Slurry competition was first performed between Form A and C at RT and 50° C. Form C was obtained after slurrying for 40 hrs at RT or 2 hrs at 50° C. […] Therefore, slurry competition was further performed between Form C and D in various solvent systems. The solvent effect of H2O was discovered to be associated with the inter-conversion relationship between Form C and D, with form D forming under anhydrous conditions.
To understand the thermodynamic stability relationship between Form A and Form C, slurry competition experiments were performed at RT and 50° C. in different solvent systems, including acetone/n-heptane, methyl tert-butylether (MTBE)/heptane, and water. Form A was used to saturate the corresponding solvent before filtered to obtain a near-saturated solution. Equal amount of Form A and C samples were weighed and then mixed with the prepared near-saturated solution to form a new suspension, which was stirred magnetically (˜1000 rpm) at RT and 50° C. The XRPD patterns of remaining solids after slurry were measured. […] Form D was obtained via slurrying Form A in MTBE/n-heptane (1:4, v/v) at RT for 1 day, with the addition of Form D sample as seeds.
To further understand the thermodynamic stability relationship between Form C and Form D, slurry competition experiments were performed at RT and 70° C. in various solvent systems, including methyl tert-butylether/heptane, water, cyclohexane, and ethanol/isooctane. Equal amount of Form C and D samples were weighed and then mixed with the near-saturated solution of Form A in corresponding solvent to form a suspension, which was stirred magnetically (˜1000 rpm) at different temperatures. The XRPD patterns of remaining solids after slurry were measured. […] Water content in process solvents were monitored and controlled during the manufacturing of Form C or D samples. […] Water activity (or relative humidity) was monitored and controlled during the manufacture and storage of Form C or D samples.

[3] = 24 hrs solubility in H2O at RT (HPLC of supernatant, XRPD of residual solids)
Protocol: The solubility at 24 hrs of Forms A, C, and D was measured in water at RT. Form A, Form C, and Form D samples were suspended into H2O with dose concentration of 10 mg/mL. After slurrying the suspensions at RT for 24 hrs (1000 rpm), the supernatants were separated for HPLC solubility measurement and the residual solids were characterized by XRPD.

[4] = Dynamic vapor sorption (DVS) hygroscopicity test; conditions: for water uptake: at 80% RH at 25° C., DVS
Protocol: To investigate the solid form stability as a function of humidity, Dynamic Vapor Sorption (DVS) isotherm plots of Form A, Form C, and Form D were collected at 25° C. between 0 and 95% relative humidity (RH) by the procedures of Example 8. […] DVS was measured via a SMS (Surface Measurement Systems) DVS Intrinsic. The relative humidity at 25° C. were calibrated against deliquescence points of LiCl, Mg(NO3)2 and KCl. [table]

[5] = 24 hrs slurry at 10 mg/mL dose concentration, HPLC

Structure (SMILES)	solubility ([1]; H2O and non-polar solvents (e.g., n-heptane, cyclohexane), water, read-out: solubility in H2O and non-polar solvents) [µg/mL]	solubility ([1]; organic solvent or mixture, solvents other than H2O and non-polar solvents, read-out: solubility in other solvents) [µg/mL]	thermodynamic stability, Form A versus Form C ([2]; slurry competition of equal amounts of Form A and C, RT and 50° C., various solvents)	thermodynamic stability, Form C versus Form D ([2]; water activity aw≥0.5 at RT)	form change after 24 hrs solubility evaluation (XRPD of residual solids) [3]	24 Hrs Solubility in H2O at RT [3, 5] [µg/mL]	Hygroscopicity ([4]; DVS at 25° C., 0 to 95% RH)	water uptake [4] [%]	thermodynamic stability, Form C versus Form D ([2]; water activity aw≤0.2 at RT)	solubility at 24 h ([3]; water, thermodynamic from solid, 24 hrs slurry at 10 mg/mL dose concentration, HPLC) [µg/mL]
CNc1nc(Nc2cn(C(C)(C)C#N)nc2C)ncc1C(F)(F)F [Formula I compound, 2-methyl-2-(3-methyl-4-(4-(methylamino)-5-(trifluoromethyl)pyrimidin-2-ylamino)-1H-pyrazol-1-yl)propanenitrile]	< 2000	> 40000								
CNc1nc(Nc2cn(C(C)(C)C#N)nc2C)ncc1C(F)(F)F [Form C, 2-methyl-2-(3-methyl-4-(4-(methylamino)-5-(trifluoromethyl)pyrimidin-2-ylamino)-1H-pyrazol-1-yl)propanenitrile]			thermodynamically more stable than Form A	more stable	No form change	140	slightly hygroscopic	0.6		
CNc1nc(Nc2cn(C(C)(C)C#N)nc2C)ncc1C(F)(F)F [Form D, 2-methyl-2-(3-methyl-4-(4-(methylamino)-5-(trifluoromethyl)pyrimidin-2-ylamino)-1H-pyrazol-1-yl)propanenitrile]					No form change	110		0.05	thermodynamically more stable	
CNc1nc(Nc2cn(C(C)(C)C#N)nc2C)ncc1C(F)(F)F [Form A, 2-methyl-2-(3-methyl-4-(4-(methylamino)-5-(trifluoromethyl)pyrimidin-2-ylamino)-1H-pyrazol-1-yl)propanenitrile]					No form change			0.04		180 (≈ 530 µM)
